For eight compounds, kcat/Km, kcat and Km results are on record in ChEMBL document CHEMBL4392860, “Characterization of the substrate scope of an alcohol dehydrogenase commonly used as methanol dehydrogenase” (Bioorg Med Chem Lett, 2019).

Holding throughout (details): DSM 2334
For assay [1], the system named is Geobacillus stearothermophilus.
Description: Substrate activity at Geobacillus stearothermophilus DSM 2334 ADH expressed in Escherichia coli BL21 (DE3) assessed as Kcat/Km ratio in 50 mM HEPES buffer at pH 7.5 at 23 degC by MTT dye based Lineweaver-Burk plot analysis
The test system of assay [2] is Geobacillus stearothermophilus. This is another data set of the same source.
Description: Substrate activity at Geobacillus stearothermophilus DSM 2334 ADH expressed in Escherichia coli BL21 (DE3) assessed as Kcat in 50 mM HEPES buffer at pH 7.5 at 23 degC by MTT dye based Lineweaver-Burk plot analysis
Assay [3] relates to Geobacillus stearothermophilus. This is another data set of the same source.
Description: Substrate activity at Geobacillus stearothermophilus DSM 2334 ADH expressed in Escherichia coli BL21 (DE3) assessed as Km in 50 mM HEPES buffer at pH 7.5 at 23 degC by MTT dye based Lineweaver-Burk plot analysis

Turning to `CCO`, the kcat/Km in assay [1] was determined as 6.26 M⁻¹ s⁻¹. For the same compound, the kcat in assay [2] turned out to be 0.019 s⁻¹. Moreover, the Km in assay [3] came to 2.95 mM.

In the case of `CC(C)(C)O`, the kcat/Km in assay [1] was found to be 0.046 M⁻¹ s⁻¹. Further, the kcat in assay [2] is 0.026 s⁻¹.

Regarding `CCCCO`, in assay [1], the specificity constant (kcat/Km) amounted to 1.67 M⁻¹ s⁻¹. For the same compound, the kcat in assay [2] was found to be 0.004 s⁻¹. Also, the Km in assay [3] was determined as 2.45 mM.

Turning to `CCCO`, the kcat/Km in assay [1] was found to be 0.46 M⁻¹ s⁻¹. In assay [2], the kcat turned out to be 0.019 s⁻¹. Also, in assay [3], the Michaelis constant (Km) is 39.8 mM.

As to `CC(C)O`, the kcat/Km in assay [1] was found to be 60.3 M⁻¹ s⁻¹. Also, the kcat in assay [2] was 0.076 s⁻¹. In addition, the Km in assay [3] was found to be 1.26 mM.

As to `CO`, in assay [1], the kcat/Km was determined as 0.044 M⁻¹ s⁻¹. Moreover, in assay [2], the kcat amounted to 0.013 s⁻¹.

Take `CCC(C)O` (configuration not stated): the catalytic efficiency (kcat/Km) in assay [1] was 3.96 M⁻¹ s⁻¹. Also, the kcat in assay [2] worked out at 0.094 s⁻¹. Besides, in assay [3], the Km stood at 23.8 mM.

Turning to `OCCCO`, in assay [1], the kcat/Km worked out at 1.71 M⁻¹ s⁻¹. In assay [2], the kcat came out at 0.041 s⁻¹. Also, the Km in assay [3] was 23.6 mM.
